In ChEMBL document CHEMBL5696441 (Nat Chem Biol, 2011):

Experiments:
[1] = test system: Tyrosine-protein kinase ABL1 (Homo sapiens), P00519 [H396P]; assay: Inhibition of ABL1 H396P mutant (unknown origin) assessed as remaining activity at 1 uM by Kinome scan method relative to control
[2] = target: Tyrosine-protein kinase ABL2 (Homo sapiens) (UniProt P42684); assay: Inhibition of ABL2 (unknown origin) assessed as remaining activity at 1 uM by Kinome scan method relative to control
[3] = target: RAC-beta serine/threonine-protein kinase (Homo sapiens) (UniProt P31751); assay: Inhibition of AKT2 (unknown origin) assessed as remaining activity at 1 uM by Kinome scan method relative to control
[4] = target: Tyrosine-protein kinase receptor UFO (Homo sapiens) (UniProt P30530); assay: Inhibition of AXL (unknown origin) assessed as remaining activity at 1 uM by Kinome scan method relative to control
[5] = target: Calcium/calmodulin-dependent protein kinase type II subunit alpha (Homo sapiens) (UniProt Q9UQM7); assay: Inhibition of CAMK2A (unknown origin) assessed as remaining activity at 1 uM by Kinome scan method relative to control
Chain of Calcium/calmodulin-dependent protein kinase type II subunit alpha (Homo sapiens) (Q9UQM7 whole entry): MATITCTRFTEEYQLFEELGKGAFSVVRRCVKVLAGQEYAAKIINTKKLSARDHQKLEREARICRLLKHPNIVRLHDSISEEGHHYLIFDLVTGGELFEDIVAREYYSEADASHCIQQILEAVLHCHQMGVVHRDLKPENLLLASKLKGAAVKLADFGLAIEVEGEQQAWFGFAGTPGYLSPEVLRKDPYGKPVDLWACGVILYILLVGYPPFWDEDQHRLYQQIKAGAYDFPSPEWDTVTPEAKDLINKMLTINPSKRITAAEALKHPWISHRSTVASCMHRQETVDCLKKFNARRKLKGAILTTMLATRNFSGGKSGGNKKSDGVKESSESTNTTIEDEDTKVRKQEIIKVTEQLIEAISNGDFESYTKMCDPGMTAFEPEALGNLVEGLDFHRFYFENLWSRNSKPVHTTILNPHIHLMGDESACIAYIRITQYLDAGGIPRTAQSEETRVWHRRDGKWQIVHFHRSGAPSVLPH

[6] = target: Receptor-interacting serine/threonine-protein kinase 1 (Homo sapiens) (UniProt Q13546); assay: Inhibition of RIPK1 (unknown origin) assessed as remaining activity at 1 uM by Kinome scan method relative to control
[7] = target: Ribosomal protein S6 kinase alpha-5 (Homo sapiens) (UniProt O75582); assay: Inhibition of N-terminal kinase domain RPS6KA5 (unknown origin) assessed as remaining activity at 1 uM by Kinome scan method relative to control
Chain of Ribosomal protein S6 kinase alpha-5 (Homo sapiens) (O75582 whole entry, looked up, the tested form may be a part): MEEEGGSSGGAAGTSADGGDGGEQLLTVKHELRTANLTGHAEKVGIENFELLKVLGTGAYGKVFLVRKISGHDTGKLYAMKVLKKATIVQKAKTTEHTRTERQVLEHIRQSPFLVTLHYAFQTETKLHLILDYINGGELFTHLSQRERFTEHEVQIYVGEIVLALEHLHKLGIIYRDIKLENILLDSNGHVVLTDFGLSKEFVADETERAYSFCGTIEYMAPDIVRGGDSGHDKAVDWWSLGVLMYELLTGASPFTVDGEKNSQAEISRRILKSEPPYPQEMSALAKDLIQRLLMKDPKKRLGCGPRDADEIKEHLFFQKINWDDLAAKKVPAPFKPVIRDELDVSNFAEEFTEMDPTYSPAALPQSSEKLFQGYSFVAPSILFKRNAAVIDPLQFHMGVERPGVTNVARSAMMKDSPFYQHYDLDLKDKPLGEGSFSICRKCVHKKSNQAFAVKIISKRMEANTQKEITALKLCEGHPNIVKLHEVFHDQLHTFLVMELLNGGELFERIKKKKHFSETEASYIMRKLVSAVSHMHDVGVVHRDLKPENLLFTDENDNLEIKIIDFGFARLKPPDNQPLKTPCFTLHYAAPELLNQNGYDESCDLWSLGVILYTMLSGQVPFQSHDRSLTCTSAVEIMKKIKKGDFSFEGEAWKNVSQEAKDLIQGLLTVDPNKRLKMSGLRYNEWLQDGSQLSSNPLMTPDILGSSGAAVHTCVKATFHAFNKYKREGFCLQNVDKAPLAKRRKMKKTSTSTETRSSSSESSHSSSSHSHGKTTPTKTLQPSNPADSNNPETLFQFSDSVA

[8] = target: Bone morphogenetic protein receptor type-1A (Homo sapiens) (UniProt P36894); assay: Inhibition of human BMPR1A assessed as residual activity at 1 uM using casein as substrate in presence of 33P-ATP by ProQinase assay relative to control
[9] = target: Calcium/calmodulin-dependent protein kinase type II subunit beta (Homo sapiens) (UniProt Q13554); assay: Inhibition of human CAMK2B assessed as residual activity at 1 uM using RBER-CHKtide as substrate in presence of 33P-ATP by ProQinase assay relative to control
[10] = target: DNA-dependent protein kinase catalytic subunit (Homo sapiens) (UniProt P78527); assay: Inhibition of human DNPK1 assessed as residual activity at 1 uM using RBER-GSK3 as substrate in presence of 33P-ATP by ProQinase assay relative to control
[11] = test system: Epidermal growth factor receptor (Homo sapiens), P00533 [G719S]; assay: Inhibition of human EGFR G719S mutant assessed as residual activity at 1 uM using PolyEY as substrate in presence of 33P-ATP by ProQinase assay relative to control
[12] = target: Ephrin type-A receptor 2 (Homo sapiens) (UniProt P29317); assay: Inhibition of human EPHA2 assessed as residual activity at 1 uM using polyEy as substrate in presence of 33P-ATP by ProQinase assay relative to control
[13] = target: Ephrin type-A receptor 4 (Homo sapiens) (UniProt P54764); assay: Inhibition of human EPHA4 assessed as residual activity at 1 uM using polyEY as substrate in presence of 33P-ATP by ProQinase assay relative to control
Chain of Ephrin type-A receptor 4 (Homo sapiens) (P54764 whole entry): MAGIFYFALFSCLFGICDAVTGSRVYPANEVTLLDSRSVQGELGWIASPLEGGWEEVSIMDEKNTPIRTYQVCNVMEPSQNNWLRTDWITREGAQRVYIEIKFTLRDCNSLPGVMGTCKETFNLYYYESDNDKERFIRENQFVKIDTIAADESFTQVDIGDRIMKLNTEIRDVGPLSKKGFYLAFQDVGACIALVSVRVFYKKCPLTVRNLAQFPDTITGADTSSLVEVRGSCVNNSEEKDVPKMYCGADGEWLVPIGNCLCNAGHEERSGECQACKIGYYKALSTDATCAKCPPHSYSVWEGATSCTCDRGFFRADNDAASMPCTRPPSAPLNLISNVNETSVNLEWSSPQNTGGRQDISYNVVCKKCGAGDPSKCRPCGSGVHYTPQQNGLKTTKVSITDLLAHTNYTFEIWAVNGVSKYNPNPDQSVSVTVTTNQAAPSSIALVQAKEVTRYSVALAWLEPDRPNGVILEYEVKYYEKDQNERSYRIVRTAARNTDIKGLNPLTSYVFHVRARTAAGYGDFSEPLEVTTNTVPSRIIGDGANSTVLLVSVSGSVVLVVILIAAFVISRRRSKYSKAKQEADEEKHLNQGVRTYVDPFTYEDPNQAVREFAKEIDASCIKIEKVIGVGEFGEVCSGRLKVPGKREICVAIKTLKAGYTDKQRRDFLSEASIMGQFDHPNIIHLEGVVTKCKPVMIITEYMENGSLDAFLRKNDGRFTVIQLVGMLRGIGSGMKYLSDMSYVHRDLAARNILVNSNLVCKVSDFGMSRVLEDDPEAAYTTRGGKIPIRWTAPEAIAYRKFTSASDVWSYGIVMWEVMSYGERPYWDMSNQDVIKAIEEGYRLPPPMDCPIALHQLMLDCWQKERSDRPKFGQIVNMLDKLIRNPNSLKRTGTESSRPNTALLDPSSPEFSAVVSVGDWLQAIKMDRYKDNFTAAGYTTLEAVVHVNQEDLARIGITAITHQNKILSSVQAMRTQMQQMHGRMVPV

[14] = target: Mitogen-activated protein kinase 1 (Homo sapiens) (UniProt P28482); assay: Inhibition of human ERK2 assessed as residual activity at 1 uM using RBER-CHKtide as substrate in presence of 33P-ATP by ProQinase assay relative to control
Chain of Mitogen-activated protein kinase 1 (Homo sapiens) (P28482 whole entry): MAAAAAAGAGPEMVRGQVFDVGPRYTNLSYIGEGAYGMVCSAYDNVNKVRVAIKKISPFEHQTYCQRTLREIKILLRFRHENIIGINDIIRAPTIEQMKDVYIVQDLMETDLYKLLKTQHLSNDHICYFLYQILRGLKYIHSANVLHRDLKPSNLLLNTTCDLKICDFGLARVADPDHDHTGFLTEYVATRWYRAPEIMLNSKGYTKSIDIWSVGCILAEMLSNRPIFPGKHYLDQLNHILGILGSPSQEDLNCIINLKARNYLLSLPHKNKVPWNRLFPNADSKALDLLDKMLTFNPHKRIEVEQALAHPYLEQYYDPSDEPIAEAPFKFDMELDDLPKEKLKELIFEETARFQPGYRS

[15] = target: Serine/threonine-protein kinase haspin (Homo sapiens) (UniProt Q8TF76); assay: Inhibition of human GSG2 assessed as residual activity at 1 uM using histon H3 as substrate in presence of 33P-ATP by ProQinase assay relative to control
Chain of Serine/threonine-protein kinase haspin (Homo sapiens) (Q8TF76 whole entry): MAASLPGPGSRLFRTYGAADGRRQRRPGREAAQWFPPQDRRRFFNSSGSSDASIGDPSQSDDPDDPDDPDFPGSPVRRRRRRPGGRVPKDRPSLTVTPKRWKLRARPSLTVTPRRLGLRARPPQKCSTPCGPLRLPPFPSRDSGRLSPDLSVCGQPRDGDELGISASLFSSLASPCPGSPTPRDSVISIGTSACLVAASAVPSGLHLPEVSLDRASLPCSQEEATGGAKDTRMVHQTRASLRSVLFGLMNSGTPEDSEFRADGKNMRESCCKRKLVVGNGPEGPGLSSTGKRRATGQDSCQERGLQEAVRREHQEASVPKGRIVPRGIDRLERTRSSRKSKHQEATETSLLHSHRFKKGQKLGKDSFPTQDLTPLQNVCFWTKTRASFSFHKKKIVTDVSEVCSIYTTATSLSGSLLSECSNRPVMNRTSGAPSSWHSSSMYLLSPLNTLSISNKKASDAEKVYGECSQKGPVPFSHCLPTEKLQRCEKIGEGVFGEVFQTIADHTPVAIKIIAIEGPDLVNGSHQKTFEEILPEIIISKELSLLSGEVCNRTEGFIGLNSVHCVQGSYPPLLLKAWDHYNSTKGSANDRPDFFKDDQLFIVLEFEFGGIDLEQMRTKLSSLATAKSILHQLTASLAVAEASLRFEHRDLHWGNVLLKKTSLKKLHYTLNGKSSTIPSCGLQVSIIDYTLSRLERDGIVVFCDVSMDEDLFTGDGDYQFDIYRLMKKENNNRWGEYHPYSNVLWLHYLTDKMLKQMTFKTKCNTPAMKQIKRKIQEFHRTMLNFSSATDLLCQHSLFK

[16] = target: Mitogen-activated protein kinase kinase kinase 9 (Homo sapiens) (UniProt P80192); assay: Inhibition of human MAP3K9 assessed as residual activity at 1 uM using RBER-GSK3 as substrate in presence of 33P-ATP by ProQinase assay relative to control
[17] = test system: Hepatocyte growth factor receptor (Homo sapiens), P08581 [M1250T]; assay: Inhibition of human MET M1250T mutant assessed as residual activity at 1 uM using poly(Ala,Glu,Lys,Tyr)6:2:5:1 as substrate in presence of 33P-ATP by ProQinase assay relative to control
[18] = target: Hepatocyte growth factor receptor (Homo sapiens) (UniProt P08581); assay: Inhibition of human MET assessed as residual activity at 1 uM using poly(Ala,Glu,Lys,Tyr)6:2:5:1 as substrate in presence of 33P-ATP by ProQinase assay relative to control
[19] = target: Serine/threonine-protein kinase 4 (Homo sapiens) (UniProt Q13043); assay: Inhibition of human MST1 assessed as residual activity at 1 uM using RB-CTF as substrate in presence of 33P-ATP by ProQinase assay relative to control
[20] = target: Protein kinase C theta type (Homo sapiens) (UniProt Q04759); assay: Inhibition of human PKCtheta assessed as residual activity at 1 uM using 3xChocktide-PKC(19-31) as substrate in presence of 33P-ATP by ProQinase assay relative to control
[21] = target: Macrophage-stimulating protein receptor (Homo sapiens) (UniProt Q04912); assay: Inhibition of human RON assessed as residual activity at 1 uM using polyEY as substrate in presence of 33P-ATP by ProQinase assay relative to control
[22] = target: TGF-beta receptor type-2 (Homo sapiens) (UniProt P37173); assay: Inhibition of human TGFBR2 assessed as residual activity at 1 uM using RB-S6P as substrate in presence of 33P-ATP by ProQinase assay relative to control
[23] = target: T1, Testis-specific serine/threonine-protein kinase 1 (Homo sapiens) (UniProt Q9BXA7); assay: Inhibition of human TSSK1 assessed as residual activity at 1 uM using RBER-CHKtide as substrate in presence of 33P-ATP by ProQinase assay relative to control
T1 sequence (whole entry): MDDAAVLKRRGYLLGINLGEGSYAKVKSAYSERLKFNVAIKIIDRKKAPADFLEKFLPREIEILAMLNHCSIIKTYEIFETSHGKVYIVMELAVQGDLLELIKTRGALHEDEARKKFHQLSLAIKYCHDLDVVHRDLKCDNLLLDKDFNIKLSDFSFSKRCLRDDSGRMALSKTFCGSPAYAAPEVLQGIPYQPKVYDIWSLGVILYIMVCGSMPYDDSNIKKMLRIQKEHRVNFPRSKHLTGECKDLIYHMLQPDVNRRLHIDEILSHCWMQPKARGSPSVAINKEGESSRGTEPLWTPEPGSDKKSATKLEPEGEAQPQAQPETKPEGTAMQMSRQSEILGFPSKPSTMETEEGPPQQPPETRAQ

[24] = Anti-inflammatory activity against human derived medium respond PBMC cells assessed as inhibition in stimulated TARC chemokine release incubated for 2 hrs in the presence of LPS/SEB/aCD28 by Luminex based sandwich immunoassay; format: functional, cell-based
CYP2D6 = CYP2D6 (Homo sapiens, UniProt P10635); assay: Inhibition of CYP2D6 (unknown origin) at 10 uM relative to control; format: ADME

Chain of Tyrosine-protein kinase ABL2 (Homo sapiens) (P42684 whole entry): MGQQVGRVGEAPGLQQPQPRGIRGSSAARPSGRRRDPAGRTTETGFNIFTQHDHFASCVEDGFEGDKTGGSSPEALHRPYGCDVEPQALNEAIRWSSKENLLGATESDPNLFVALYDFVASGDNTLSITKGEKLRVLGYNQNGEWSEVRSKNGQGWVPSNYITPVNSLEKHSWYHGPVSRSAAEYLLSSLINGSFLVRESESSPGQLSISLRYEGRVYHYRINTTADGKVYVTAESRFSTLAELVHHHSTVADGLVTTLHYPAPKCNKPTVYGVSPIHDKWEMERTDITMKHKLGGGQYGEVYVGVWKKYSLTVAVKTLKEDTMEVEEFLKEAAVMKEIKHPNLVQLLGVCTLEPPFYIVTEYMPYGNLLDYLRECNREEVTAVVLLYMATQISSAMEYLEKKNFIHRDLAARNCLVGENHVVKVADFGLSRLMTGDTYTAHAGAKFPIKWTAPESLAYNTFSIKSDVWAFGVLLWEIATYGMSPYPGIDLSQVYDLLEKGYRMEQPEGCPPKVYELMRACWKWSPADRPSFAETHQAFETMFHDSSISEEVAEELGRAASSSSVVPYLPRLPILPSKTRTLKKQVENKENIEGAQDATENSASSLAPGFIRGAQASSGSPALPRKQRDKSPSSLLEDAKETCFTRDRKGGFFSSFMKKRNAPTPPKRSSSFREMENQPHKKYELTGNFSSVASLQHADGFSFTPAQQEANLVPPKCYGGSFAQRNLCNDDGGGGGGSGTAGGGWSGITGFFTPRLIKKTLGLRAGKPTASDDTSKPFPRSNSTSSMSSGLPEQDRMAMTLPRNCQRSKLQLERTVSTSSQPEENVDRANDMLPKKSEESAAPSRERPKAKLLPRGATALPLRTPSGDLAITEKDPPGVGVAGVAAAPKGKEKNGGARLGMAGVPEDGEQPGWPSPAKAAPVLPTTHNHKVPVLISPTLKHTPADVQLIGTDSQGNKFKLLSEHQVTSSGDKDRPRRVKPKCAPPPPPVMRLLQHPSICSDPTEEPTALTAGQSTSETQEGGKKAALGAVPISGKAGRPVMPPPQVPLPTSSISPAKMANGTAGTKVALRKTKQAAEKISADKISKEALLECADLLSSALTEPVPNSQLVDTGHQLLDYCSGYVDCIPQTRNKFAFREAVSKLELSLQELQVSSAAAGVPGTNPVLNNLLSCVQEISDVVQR

O=C1c2ccc(Nc3ccc(F)cc3F)cc2CCc2ccc(OC[C@H](O)CO)cc21 [Skepinone-L]
Activity [1]: 100% | Activity [2]: 100% | Activity [3]: 90% | Activity [4]: 94% | Activity [5]: 100% | Activity [6]: 100% | Activity [7]: 95% | Activity [8]: 100% | Activity [9]: 86% | Activity [10]: 82% | Activity [11]: 96% | Activity [12]: 119% | Activity [13]: 93% | Activity [14]: 83% | Activity [15]: 82% | Activity [16]: 90% | Activity [17]: 100% | Activity [18]: 108% | Activity [19]: 71% | Activity [20]: 99% | Activity [21]: 56% | Activity [22]: 77% | Activity [23]: 90% | IC50 [24]: Not Active | inhibition at 10 µM (CYP2D6): -21%
